# Patent US12605362B2, “Eletriptan hydrobromide for treatment of spinal cord injury and improvement of locomotor function” (TECHNOPHAGE, INVESTIGAÇÃO E DESENVOLVIMENTO EM …, priority 2020, dated 2026)
# Counter-ions that a name gives are not always drawn.
# Columns and labels:
# [1] = system: mice with T9 contusion type of injury; assay: Basso Mouse Scale (BMS) open-field locomotion after T9 contusion spinal cord injury; assay type: in vivo
# Procedure: Adult female C57BL/6J mice (8-10 weeks-old; Charles River) were used in this study. The mice were housed three to four per cage and were maintained on a 12-hour light/dark cycle with food and water ad libitum for the duration of the study.
# (§1) A moderate-severe contusion-type of injury was performed on adult C57BL/6 female mice (10-12 weeks) with an Infinite Horizon Impactor (PSI)^30. All surgeries were performed under aseptic conditions. Briefly, under deep anesthesia with Ketamine and Xylazine (120 mg/kg and 16 mg/kg respectively, i.p.) mice received a dorsal laminectomy at the level of 9th thoracic vertebra (T9). After securing the lateral processes of the 8th thoracic vertebra (T8) and 10th thoracic vertebra (T10) with a stainless-steel impactor tip, a controlled force-defined impact at 75 kdyne was delivered to the exposed spinal cord^28,30. Then, muscle and skin were closed with 4.0 polyglycolic acid (PGA) absorbable sutures (Safil, G1048213). In this study, mice were excluded when the actual displacement value was outside the interval 500-700 μm or if the actual force after impact was >2SD 75 Kdyne. Immediately after injury, mice were injected subcutaneously with 0.5 ml of sterile saline and then daily for 5 days. During this experiment, mice underwent gentle bladder expression twice daily until they were voiding on their own. Weight was monitored daily until 15 days-post-injury (dpi) and then weekly for the duration of the study and a high caloric pellet (Supreme Mini-Treats™ S05478 and S05472) was provided as a dietary supplement since a 10% weight loss was typically observed in this SCI model upon injury.
# The Eletriptan Hbr (Sigma-Aldrich, PZ0011) dosage used were equivalent to the human market dose^31 and all treatment dosages were aliquoted using a coded system to maintain double-blinded measures. This code was only unveiled at the end of all behavioural tests. Mice were randomly distributed to each experimental group (SCI+Vehicle and SCI+Eletriptan Hbr). Vehicle and Eletriptan Hbr were administered via intraperitoneal injection (i.p.), beginning 1 hour after injury (hpi) and then daily until 15 dpi.
# Open-field locomotion was assessed with the BMS rating system^30,32. The open-field used was a round platform with 85 cm in diameter and 30.5 cm high, located in a quiet testing room with normal lighting. The mice were habituated to the testing platform for 5 minutes daily for 2 weeks before surgery. The BMS testing (BMS scoring and subscoring) was performed as previously described^28,30. Briefly, mice were tested before surgery, to obtain baseline pre-operation locomotion values, where it is expected a maximum S score value. To determine the functional recovery after treatment the BMS score of each mouse was evaluated at 1, 3, 7, 14 dpi and then weekly until the end of the experiments. The evaluation of BMS score and subscore was always performed by two raters who were blind to the treatment groups and scored hindlimb locomotion for 4 minutes per mouse. If the scores differed between raters, the final score taken was the average of both scores.
# To validate the therapeutic effect of Eletriptan Hbr for SCI indication in a non-regenerative model, it was decided to test its efficacy in a SCI rodent model. Therefore, a contusion type of injury was performed in C57BL/6 female mice, using an Infinite Horizon (IH) Impactor and the Basso Mouse Scale (BMS) test^32 was used to evaluate the locomotor performance of the animals after injury. First, mice were habituated to the open-field platform and after 15 days they were injured with a moderate-severe T9 contusion (75 kdyne) (FIG. 2A). Immediately after injury and upon biomechanical exclusion criteria, mice were randomly distributed to each experimental group (SCI+Vehicle and SCI+Eletriptan Hbr). Treatment dosages (Vehicle or Eletriptan Hbr) were administered via intraperitoneal (i.p.) injection, beginning 1 hour-post-injury (1hpi), and then daily until 15 dpi (FIG. 2A). […]
# [2] = target: 5-HT1B (Homo sapiens, UniProt P28222); conditions: serotonin receptor agonist; cited from earlier work
# 5-HT1B, sequence (P28222 whole entry, species assumed): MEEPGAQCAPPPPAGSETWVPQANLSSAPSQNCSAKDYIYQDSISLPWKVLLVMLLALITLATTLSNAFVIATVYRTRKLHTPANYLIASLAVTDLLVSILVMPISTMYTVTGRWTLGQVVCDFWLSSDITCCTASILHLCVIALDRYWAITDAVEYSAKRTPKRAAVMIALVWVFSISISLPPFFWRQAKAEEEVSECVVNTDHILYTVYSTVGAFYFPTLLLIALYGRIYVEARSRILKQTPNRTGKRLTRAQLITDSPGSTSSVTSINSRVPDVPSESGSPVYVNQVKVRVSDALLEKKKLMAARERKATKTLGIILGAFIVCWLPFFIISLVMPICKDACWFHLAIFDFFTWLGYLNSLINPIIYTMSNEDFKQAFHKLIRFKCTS
# [3] = system: mice with T9 contusion type of injury; assay: bladder function score during manual bladder expression after T9 contusion SCI; assay type: in vivo; conditions: vs Vehicle
# Procedure: as §1, with “During this experiment, mice underwent gentle bladder expression twice daily until they were voiding on their own.” left out, “injury. […]” for “injury.”
# Additionally, we also evaluated the bladder dysfunction status, which is a common effect seen after a SCI^3,37. […]
# [4] = target: T1, 5-HTIF (Homo sapiens, UniProt P30939); conditions: serotonin receptor agonist; cited from earlier work
# T1 sequence (P30939 1-366): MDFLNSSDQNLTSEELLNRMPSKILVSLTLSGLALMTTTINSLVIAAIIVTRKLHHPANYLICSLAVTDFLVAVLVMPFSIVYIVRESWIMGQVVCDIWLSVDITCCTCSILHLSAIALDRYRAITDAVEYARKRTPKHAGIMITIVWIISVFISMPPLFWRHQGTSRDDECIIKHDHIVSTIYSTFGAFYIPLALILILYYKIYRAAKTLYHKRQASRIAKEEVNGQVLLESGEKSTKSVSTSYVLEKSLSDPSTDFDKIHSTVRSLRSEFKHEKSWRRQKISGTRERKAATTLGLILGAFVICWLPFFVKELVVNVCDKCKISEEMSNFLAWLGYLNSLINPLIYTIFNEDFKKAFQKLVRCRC
# [5] = system: mice with T9 contusion type of injury; assay: FluoroMyelin Green staining and white matter sparing analysis; assay type: in vivo; conditions: 42 dpi; at lesion epicentre and over 700 μm rostrally and caudally, vs Vehicle
# Procedure: as §1, with “In this study, mice were excluded when the actual displacement value was outside the interval 500-700 μm or if the actual force after impact was >2SD 75 Kdyne. Immediately after injury, mice were injected subcutaneously with 0.5 ml of sterile saline and then daily for 5 days. During this experiment, mice underwent gentle bladder expression twice daily until they were voiding on their own.” left out, “injury. […]” for “injury.”
# To quantify demyelination, one set of sections spaced 100 μm apart and spanning the entire block was stained with FluoroMyelin™ Green (ThermoFisher Scientific, F34651) for 1 hour. Z-stack compositions were acquired in a motorized inverted widefield fluorescence microscope (Zeiss Cell Observer, Carl Zeiss MicroImaging) with 10× magnification. […]
smiles,measurement,setting,value
"CN1CCC[C@@H]1Cc1c[nH]c2ccc(CCS(=O)(=O)c3ccccc3)cc12 [Eletriptan Hbr, Eletriptan Hydrobromide]",animals that acquired a mild trunk stability,[1]; 42 dpi,46%
same,mice with frequent plantar stepping with parallel placement of both hindlimb paws at initial contact,[1]; 42 dpi,85%
same,mice with parallel placement of at least one of the hindlimb paws at lift off,[1]; 42 dpi,23%
same,events that block the walking movement such as spasms and but downs,"[1]; 42 dpi, observed during BMS testing, vs Vehicle",less events
same,mice that achieved a BMS score of 5 (frequent or consistent plantar stepping),"[1]; 42 dpi, of thirteen treated mice",twelve
same,mice that achieved a BMS score of 6 (frequent plantar stepping with some fore-hindlimb coordination),"[1]; 42 dpi, thirteen treated mice",one out of thirteen
same,average BMS subscores compared to Vehicle-treated mice,[1]; from 7 to 42 dpi,consistently higher
same,average BMS subscores compared to Vehicle-treated mice,[1]; from 35 dpi to 42 dpi,significantly higher
same,time at which average BMS scores reached a plateau,"[1]; i.p. from 1 hpi, daily until 15 dpi",28-35 dpi
same,BMS scores over time compared to Vehicle-treated mice,"[1]; i.p. from 1 hpi, daily until 15 dpi, 1 to 42 dpi",consistently but not significantly higher
same,affinity,[2],high affinity
same,volumes of retained urine (bladder score 0 to 3),[3]; 1 dpi,statistically significant smaller volumes of retained urine
same,volumes of retained urine (bladder score 0 to 3),[3]; after 1 dpi until the end of the study,no differences between experimental groups
same,affinity,[4],high affinity
same,spared white matter per total cross-sectional area,[5],not significantly but consistently higher
